From DBAASP
Converted amounts (≈) assume the structure as drawn.

How the values were obtained:
Test in all cases: ≥ marks a high value that may be exact or a test limit, other limits are often not marked, values filed in µg/mL are converted to µM
[1] = system: Pseudomonas aeruginosa E411-17
[2] = system: Staphylococcus aureus M838-17
[3] = system: Klebsiella pneumoniae E406-17
[4] = system: Pseudomonas aeruginosa 910
[5] = system: Pseudomonas aeruginosa 919
[6] = system: Pseudomonas aeruginosa 253
[7] = system: Pseudomonas aeruginosa PAO1
[8] = system: Staphylococcus aureus ATCC 25923
[9] = system: Candida albicans
[10] = system: Escherichia coli ATCC 25922
[11] = system: Pseudomonas aeruginosa ATCC 27853
[12] = system: Candida albicans ATCC 1023
[13] = system: Candida albicans ATCC 24433
[14] = system: Trichophyton rubrum ATCC 28189
[15] = system: Escherichia coli
[16] = system: Candida parapsilosis ATCC 22019
[17] = system: Staphylococcus aureus
[18] = system: Candida albicans ATCC 10231
[19] = system: Corynebacterium glutamicum ATCC 13032
[20] = system: Aureobasidium pullulans
[21] = system: Staphylococcus aureus ATCC 9144
[22] = system: Bacillus megaterium ATCC 10778
[23] = system: Escherichia coli SBS 363
[24] = system: Candida tropicalis IOC 4560
[25] = system: Enterobacter cloacae beta-12
[26] = system: Micrococcus luteus A270
[27] = system: Candida albicans MDM8
[28] = system: Serratia marcescens ATCC 4112
[29] = system: Penicillium expansum
[30] = system: Aspergillus niger
[31] = system: Cryptococcus neoformans
[32] = system: Staphylococcus aureus ATCC 12600
[33] = system: Acinetobacter baumannii
[34] = system: Klebsiella pneumoniae ATCC 13883
[35] = system: Enterobacter cloacae
[36] = system: Staphylococcus aureus MR
[37] = system: Escherichia coli BL21
[38] = system: Klebsiella pneumoniae KpC+001825971
[39] = system: Pseudomonas aeruginosa PA14
[40] = system: Escherichia coli KpC+001812446
[41] = system: Escherichia coli ATCC 35218
[42] = system: Escherichia coli ATCC 43827
[43] = system: Escherichia coli ATCC 11775
[44] = system: Escherichia coli ESBL 4
[45] = system: Escherichia coli ESBL

## CC(C)C[C@H](NC(=O)[C@H](Cc1c[nH]c2ccccc12)NC(=O)[C@H](Cc1c[nH]c2ccccc12)NC(=O)[C@H](Cc1c[nH]c2ccccc12)NC(=O)[C@H](Cc1c[nH]c2ccccc12)NC(=O)[C@H](CCCN=C(N)N)NC(=O)[C@H](CCCN=C(N)N)NC(=O)[C@@H](N)CCCN=C(N)N)C(N)=O [RRRWWWWL]
[1]
  MIC: 6.25 µM (≈ 8.4 µg/mL)
[2]
  MIC: 3.1 µM (≈ 4.17 µg/mL)
[3]
  MIC: 6.25 µM (≈ 8.4 µg/mL)

## CC[C@H](C)[C@H](N)C(=O)N[C@@H](CC(C)C)C(=O)N[C@@H](CCCCN)C(=O)N[C@@H](Cc1c[nH]c2ccccc12)C(=O)N[C@@H](CCCCN)C(=O)N[C@@H](CCCN=C(N)N)C(=O)N[C@@H](CCCCN)C(=O)N[C@@H](Cc1c[nH]c2ccccc12)C(=O)N[C@@H](Cc1c[nH]c2ccccc12)C(=O)N[C@@H](CCCCN)C(=O)N[C@@H](Cc1c[nH]c2ccccc12)C(=O)N[C@@H](Cc1ccccc1)C(=O)N[C@@H](CCCN=C(N)N)C(N)=O [ILKWKRKWWKWFR]
[4]
  MIC: 4 µM (≈ 7.84 µg/mL)
[5]
  MIC: ≥ 32 µM
[6]
  MIC: 8 µM (≈ 15.7 µg/mL)
[7]
  MIC: 2 µM (≈ 3.92 µg/mL)

## CC[C@H](C)[C@H](NC(=O)CN)C(=O)N[C@@H](CC(C)C)C(=O)N[C@@H](CC(=O)O)C(=O)N[C@@H](C)C(=O)N[C@H](C(=O)N[C@@H](CCCCN)C(=O)N[C@@H](C)C(=O)N[C@H](C(=O)N[C@@H](C)C(=O)N[C@@H](CCCCN)C(=O)N[C@@H](C)C(=O)N[C@@H](C)C(=O)NCC(N)=O)[C@@H](C)CC)[C@@H](C)CC [GILDAIKAIAKAAG]
[8]
  MIC: 6.1 µM (≈ 7.99 µg/mL)
[9]
  MIC: 195 µM (≈ 256 µg/mL)
[10]
  MIC: 24.4 µM (≈ 32 µg/mL)
[11]
  MIC: 48.8 µM (≈ 64 µg/mL)
[12]
  MIC: ≥ 195 µM

## CC[C@H](C)[C@H](NC(=O)[C@H](CC(C)C)NC(=O)[C@H](CCC(N)=O)NC(=O)[C@H](CO)NC(=O)[C@H](CCCN=C(N)N)NC(=O)[C@@H](N)CO)C(=O)N[C@H](C(=O)N[C@@H](Cc1cnc[nH]1)C(=O)N[C@@H](CCC(N)=O)C(=O)N[C@@H](CCCN=C(N)N)C(=O)N[C@@H](CC(C)C)C(=O)N[C@@H](Cc1ccccc1)C(N)=O)C(C)C [SRSQLIVHQRLF]
[13]
  MIC: ≥ 270 µM
[14]
  MIC: ≥ 270 µM
[15]
  MIC: > 270 µM
[16]
  MIC: ≥ 270 µM
[17]
  MIC: > 270 µM

## CC(C)[C@H](NC(=O)[C@H](CCCCN)NC(=O)[C@H](C)NC(=O)[C@@H](NC(=O)[C@@H](NC(=O)[C@H](CCCN=C(N)N)NC(=O)[C@H](CCCN=C(N)N)NC(=O)[C@H](Cc1c[nH]c2ccccc12)NC(=O)[C@H](Cc1c[nH]c2ccccc12)NC(=O)CN)[C@@H](C)O)C(C)C)C(=O)N[C@@H](CCCN=C(N)N)C(=O)N[C@@H](C)C(N)=O [GWWRRTVAKVRA]
[18]
  MIC: 25 µM (≈ 37.1 µg/mL)
[19]
  MIC: 0.8 µM (≈ 1.19 µg/mL)
[20]
  MIC: ≥ 50 µM
[10]
  MIC: 6.3 µM (≈ 9.35 µg/mL)
[11]
  MIC: 6.3 µM (≈ 9.35 µg/mL)
[21]
  MIC: ≥ 50 µM

## CC(C)C[C@H](NC(=O)CN)C(=O)NCC(=O)N[C@@H](C)C(=O)N[C@@H](CC(C)C)C(=O)N[C@@H](Cc1c[nH]c2ccccc12)C(=O)N[C@@H](CC(N)=O)C(=O)N[C@H](C(=O)N[C@@H](C)C(=O)N[C@@H](CCCCN)C(=O)N[C@@H](CO)C(=O)N[C@H](C(=O)N[C@@H](Cc1ccccc1)C(N)=O)C(C)C)C(C)C [GLGALWNVAKSVF]
[22]
  MIC: 3.1 µM (≈ 4.22 µg/mL)
[23]
  MIC: ≥ 50 µM
[24]
  MIC: 25 µM (≈ 34 µg/mL)
[25]
  MIC: ≥ 50 µM
[11]
  MIC: > 50 µM
[26]
  MIC: 0.8 µM (≈ 1.09 µg/mL)
[27]
  MIC: 25 µM (≈ 34 µg/mL)
[28]
  MIC: 0.8 µM (≈ 1.09 µg/mL)

## CSCC[C@H](NC(=O)CNC(=O)[C@H](CC(C)C)NC(=O)[C@H](Cc1ccccc1)NC(=O)CNC(=O)[C@H](CO)NC(=O)[C@@H]1CCCN1C(=O)CN)C(=O)N[C@@H](CCCN=C(N)N)C(=O)O [GPSGFLGMR]
[23]
  MIC: ≥ 100 µM
[29]
  MIC: ≥ 128 µM
[11]
  MIC: 64 µM (≈ 58.9 µg/mL)
[26]
  MIC: ≥ 128 µM
[30]
  MIC: ≥ 128 µM
[31]
  MIC: ≥ 128 µM

## CC[C@H](C)[C@H](N)C(=O)N[C@@H](CC(N)=O)C(=O)N[C@@H](CC(C)C)C(=O)N[C@@H](CCCCN)C(=O)N[C@@H](CCCCN)C(=O)N[C@@H](CC(C)C)C(=O)N[C@@H](C)C(=O)N[C@@H](C)C(=O)N[C@@H](CCCN=C(N)N)C(=O)N[C@H](C(=O)N[C@@H](CCCCN)C(=O)N[C@@H](CCCCN)C(=O)N[C@@H](CCCCN)C(=O)N[C@H](C(N)=O)[C@@H](C)CC)[C@@H](C)CC [INLKKLAARIKKKI]
[32]
  MIC: 4 µM (≈ 6.54 µg/mL)
[33]
  MIC: ≥ 32 µM
[34]
  MIC: ≥ 32 µM
[35]
  MIC: ≥ 32 µM
[8]
  MIC: 8 µM (≈ 13.1 µg/mL)
[36]
  MIC: 8 µM (≈ 13.1 µg/mL)
[7]
  MIC: 4 µM (≈ 6.54 µg/mL)
[10]
  MIC: 4 µM (≈ 6.54 µg/mL)
[37]
  MIC: 2 µM (≈ 3.27 µg/mL)
[38]
  MIC: ≥ 32 µM
[39]
  MIC: 4 µM (≈ 6.54 µg/mL)
[40]
  MIC: 8 µM (≈ 13.1 µg/mL)

## CC[C@H](C)[C@H](NC(=O)[C@H](Cc1ccc(O)cc1)NC(=O)[C@H](CCC(N)=O)NC(=O)[C@H](CC(C)C)NC(=O)[C@H](C)NC(=O)[C@H](CCCCN)NC(=O)[C@H](CCCCN)NC(=O)[C@H](CCSC)NC(=O)[C@H](CCCCN)NC(=O)[C@@H](N)CCCCN)C(=O)N[C@@H](CCCCN)C(=O)N[C@@H](CC(C)C)C(=O)N[C@@H](CC(C)C)C(=O)N[C@@H](CCCCN)C(N)=O [KKMKKALQYIKLLK]
[41]
  MIC: 25 µM (≈ 43.3 µg/mL)
[42]
  MIC: 25 µM (≈ 43.3 µg/mL)
[43]
  MIC: ≥ 100 µM
[44]
  MIC: ≥ 100 µM
[10]
  MIC: 50 µM (≈ 86.6 µg/mL)
[11]
  MIC: > 100 µM
[45]
  MIC: 25 µM (≈ 43.3 µg/mL)
